Series [1] deals with CYP3A4 (Homo sapiens, UniProt P08684). As to the kind of experiment: CYP inhibition cocktail assay in pHLM, CYP3A4 (testosterone). The procedure:
A modified dual-cocktail based method (Dinger et al. [2014b]) was used. Substrate cocktail A consisted of 8.9 µM dextromethorphan (CYP2D6), 86 µM testosterone (CYP3A4), 3.5 µM diclofenac (CYP2C9), and 12 µM phenacetin (CYP1A2). Substrate cocktail B included 30 µM bupropion (CYP2B6), 2 µM amodiaquine (CYP2C8) and 21 µM omeprazole (CYP2C19). Substrate concentrations were near their respective Michaelis–Menten constant (Km) values (Dinger et al. [2014a]) and all concentrations are final. Enzyme inhibition was investigated using a positive control, a test group, a control group, an interference group, and a negative control. In the test group, specific inhibitors were replaced by MDPM (20 µM). Instead of inhibitors, phosphate buffer was used in the control group. Enzymes were replaced with phosphate buffer in the negative control group. The interference group was incubated like the control group, but the reaction was stopped with 20 µM MDPM in acetonitrile, also containing 2.5 µM trimipramine-d3. All groups were incubated with a NADPH-regenerating system, consisting of 5 mM isocitrate, 2 U/mL isocitrate dehydrogenase, 5 mM Mg^2+, and 1.2 mM NADP^+. Further, substrate cocktail A or B, 90 mM phosphate buffer (pH 7.4), and 200 U/mL superoxide dismutase were added to each group. […] All groups were preincubated for 10 min at 37 °C. […] Enzyme inhibition was evaluated by metabolite formation. […]

Series [2] is described as follows: In vitro plasma protein binding (ultrafiltration, Centrifree). Type of series: in vitro ADME. Conditions: 30 min at 37 °C, triplicate. The procedure: PPB of MDPM was investigated based on published procedures with minor adjustments (Gampfer et al. [2020]), (Mardal et al. [2016]). A volume of 450 µL fresh human blood plasma was spiked with 50 µL of a 5 µM methanolic solution of MDPM. The mixture was incubated for 30 min at 37 °C. Plasma aliquots of 100 µL and 400 µL were transferred to a new reaction tube (global approach, GA) and onto two-chambered Centrifree devices from Merck (Darmstadt, Germany), respectively. The Centrifree devices were centrifuged for 40 min and 1600×g to obtain 100 µL of ultrafiltrate (UF). UF and GA were precipitated using 50 µL acetonitrile (− 20 °C). The mixture was vortexed, cooled for 30 min at − 20 °C, and centrifuged for 3 min at 18,407×g. […] Experiments were done in triplicate. Fraction unbound (fu) and PPB was determined by comparing the area ratios of MDPM and trimipramine-d3 in the UF and GA using the following equations:1 fu=peak area ratioMDPMUF/ISUF/peak area ratioMDPMGA/ISGA 2 PPB[%]=1-fu∗100

The target of series [3] is CYP2D6 (Homo sapiens, UniProt P10635). As to the kind of experiment: Monooxygenase mapping (ten human cDNA-expressed CYP isoforms and FMO3). Type of series: in vitro ADME. Conditions: MDPM 25 µM, CYP 50 pmol/mL each or FMO3 0.25 mg protein/mL, 90 and 270 min. More on the design: Then, pHLM (0.4 mg microsomal protein/mL) was added to each group except the negative control; tissue Discovery Life Sciences; host or cells: pooled human liver microsomes, 25 donors. As for the experimental part: As described elsewhere (Wagmann et al. [2016]) and with minor modifications, MDPM (25 µM) was incubated with 2.5 mM isocitrate, 0.8 U/mL isocitrate dehydrogenase, 100 U/mL superoxide dismutase, 0.6 mM NADP^+, 2.5 mM Mg^2+ and CYP1A2, CYP2A6, CYP2B6, CYP2C8, CYP2C9, CYP2C19, CYP2D6, CYP2E1, CYP3A4, CYP3A5 (50 pmol/mL each), or FMO3 (0.25 mg protein/mL) for 90 and 270 min at 37 °C. For incubations with CYP2A6 or CYP2C9, phosphate buffer was replaced with 90 mM Tris buffer, according to the manufacturer’s guideline. Thirty µL aliquots were taken at both timepoints. The reaction was stopped using 20 µL acetonitrile (− 20 °C) with 2.5 µM trimipramine-d3 as an internal standard. All incubations were done in duplicates and concentrations are final. […] Negative control samples without enzymes and blank samples without substrate were incubated to identify not metabolically formed compounds and to confirm the absence of interfering compounds.

In series [4] the target is CYP2C19 (Homo sapiens, UniProt P33261). As to the kind of experiment: CYP inhibition cocktail assay in pHLM, CYP2C19 (omeprazole). Conditions: inhibitor 20 µM. As for the experimental part: (§1) A modified dual-cocktail based method (Dinger et al. [2014b]) was used. Substrate cocktail A consisted of 8.9 µM dextromethorphan (CYP2D6), 86 µM testosterone (CYP3A4), 3.5 µM diclofenac (CYP2C9), and 12 µM phenacetin (CYP1A2). Substrate cocktail B included 30 µM bupropion (CYP2B6), 2 µM amodiaquine (CYP2C8) and 21 µM omeprazole (CYP2C19). Substrate concentrations were near their respective Michaelis–Menten constant (Km) values (Dinger et al. [2014a]) and all concentrations are final. Enzyme inhibition was investigated using a positive control, a test group, a control group, an interference group, and a negative control. In the test group, specific inhibitors were replaced by MDPM (20 µM). Instead of inhibitors, phosphate buffer was used in the control group. Enzymes were replaced with phosphate buffer in the negative control group. The interference group was incubated like the control group, but the reaction was stopped with 20 µM MDPM in acetonitrile, also containing 2.5 µM trimipramine-d3. All groups were incubated with a NADPH-regenerating system, consisting of 5 mM isocitrate, 2 U/mL isocitrate dehydrogenase, 5 mM Mg^2+, and 1.2 mM NADP^+. Further, substrate cocktail A or B, 90 mM phosphate buffer (pH 7.4), and 200 U/mL superoxide dismutase were added to each group. […] All groups were preincubated for 10 min at 37 °C. Then, pHLM (0.4 mg microsomal protein/mL) was added to each group except the negative control. Incubations were done for 15 min at 37 °C. Therefore, 50 µL of acetonitrile (− 20 °C) containing 2.5 µM trimipramine-d3 as internal standard was added. Incubations were done in triplicates and organic solvent in the incubation mixture was below 1% (Chauret et al. [1998]). Afterwards the samples were vortexed and centrifuged for 2 min at 18,407×g. 70 µL of the supernatant were transferred to autosampler vials and 10 µL were injected onto the LC-HRMS/MS system. Enzyme inhibition was evaluated by metabolite formation. […] The following settings were used: unpaired; one-tailed; significance level, 0.05; confidence intervals, 99%.

Series [5] deals with T1, CYP2B6 (Homo sapiens, UniProt P20813).
T1 sequence (P20813 1-491): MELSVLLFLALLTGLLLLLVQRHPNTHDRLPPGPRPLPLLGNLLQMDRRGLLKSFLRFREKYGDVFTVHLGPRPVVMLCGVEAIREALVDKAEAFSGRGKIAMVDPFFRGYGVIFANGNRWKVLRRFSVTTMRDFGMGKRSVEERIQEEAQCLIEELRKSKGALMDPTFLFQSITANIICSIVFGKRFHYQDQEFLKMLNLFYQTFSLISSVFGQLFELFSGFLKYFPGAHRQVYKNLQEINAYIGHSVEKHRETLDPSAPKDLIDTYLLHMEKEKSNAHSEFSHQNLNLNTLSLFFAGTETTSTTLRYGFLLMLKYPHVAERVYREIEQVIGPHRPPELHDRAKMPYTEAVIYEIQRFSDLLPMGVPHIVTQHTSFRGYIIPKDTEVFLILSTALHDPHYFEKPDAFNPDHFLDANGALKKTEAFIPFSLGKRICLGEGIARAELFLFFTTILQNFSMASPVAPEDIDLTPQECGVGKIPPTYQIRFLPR
As to the kind of experiment: CYP inhibition cocktail assay in pHLM, CYP2B6 (bupropion). Conditions: inhibitor 20 µM. The procedure: as §1

Sequence of CYP3A4 (P08684 whole entry): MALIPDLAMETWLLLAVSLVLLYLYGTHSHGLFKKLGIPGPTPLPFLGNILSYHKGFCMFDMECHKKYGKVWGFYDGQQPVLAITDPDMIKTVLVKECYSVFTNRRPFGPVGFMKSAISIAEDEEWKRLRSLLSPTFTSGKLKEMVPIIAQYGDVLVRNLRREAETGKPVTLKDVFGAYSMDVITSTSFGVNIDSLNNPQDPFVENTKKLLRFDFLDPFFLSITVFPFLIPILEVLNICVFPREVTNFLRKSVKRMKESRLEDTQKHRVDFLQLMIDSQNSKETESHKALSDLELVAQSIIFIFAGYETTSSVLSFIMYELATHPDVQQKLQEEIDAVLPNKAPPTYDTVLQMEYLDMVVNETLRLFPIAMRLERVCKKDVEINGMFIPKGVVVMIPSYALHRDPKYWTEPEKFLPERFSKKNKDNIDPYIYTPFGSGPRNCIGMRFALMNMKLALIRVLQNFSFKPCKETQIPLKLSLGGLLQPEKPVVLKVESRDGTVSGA
Sequence of CYP2C19 (P33261 whole entry): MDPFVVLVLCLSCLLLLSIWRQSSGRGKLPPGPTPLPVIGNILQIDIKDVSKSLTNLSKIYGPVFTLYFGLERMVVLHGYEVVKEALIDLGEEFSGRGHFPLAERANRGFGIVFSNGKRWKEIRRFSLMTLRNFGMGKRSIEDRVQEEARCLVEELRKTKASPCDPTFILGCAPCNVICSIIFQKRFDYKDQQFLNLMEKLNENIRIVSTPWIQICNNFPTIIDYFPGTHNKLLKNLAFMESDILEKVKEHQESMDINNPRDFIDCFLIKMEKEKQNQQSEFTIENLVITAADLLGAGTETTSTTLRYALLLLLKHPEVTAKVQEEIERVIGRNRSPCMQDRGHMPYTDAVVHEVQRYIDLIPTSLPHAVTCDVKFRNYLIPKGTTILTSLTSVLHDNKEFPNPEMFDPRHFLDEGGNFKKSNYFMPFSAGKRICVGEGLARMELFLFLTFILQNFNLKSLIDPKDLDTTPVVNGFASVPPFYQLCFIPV
Sequence of CYP2D6 (P10635 whole entry, canonical isoform): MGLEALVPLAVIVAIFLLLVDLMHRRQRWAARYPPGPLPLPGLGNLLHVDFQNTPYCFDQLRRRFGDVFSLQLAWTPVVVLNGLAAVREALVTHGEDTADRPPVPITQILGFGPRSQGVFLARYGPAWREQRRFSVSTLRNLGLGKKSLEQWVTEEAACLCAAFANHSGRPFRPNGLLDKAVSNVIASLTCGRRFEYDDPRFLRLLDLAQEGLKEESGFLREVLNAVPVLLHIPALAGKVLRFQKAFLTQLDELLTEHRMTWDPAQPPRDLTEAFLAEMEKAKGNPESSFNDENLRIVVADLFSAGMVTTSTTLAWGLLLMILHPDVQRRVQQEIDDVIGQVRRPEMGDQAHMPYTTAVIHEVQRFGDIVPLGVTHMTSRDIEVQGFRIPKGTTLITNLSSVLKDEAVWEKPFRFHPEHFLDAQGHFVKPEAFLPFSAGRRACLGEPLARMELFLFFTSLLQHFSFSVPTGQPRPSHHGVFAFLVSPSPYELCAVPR

In the case of `CC1NCCOC1c1ccc2c(c1)OCO2` (stereo not drawn) [MDPM, 2-(1,3-benzodioxol-5-yl)-3-methylmorpholine], the inhibition (commonly how much of the control response was suppressed) at 15 min, 20 µM in series [1] (human, pH 7.4) worked out at 28%. In addition, the CYP3A4 metabolite formation in series [1] (inhibitor 20 µM, testosterone 86 µM, pHLM 0.4 mg/mL, 15 min, control without inhibitor = 100%) is 72%. The fraction unbound at 30 min, 0.5 µM in series [2] (fresh human blood plasma, read-out: plasma protein binding (PPB) (converted)) was 0.68. Also, the “plasma protein binding (PPB)” value in series [2] (human plasma) is recorded as 32%. For the same molecule, in series [3], the “isozymes forming the demethylenyl metabolite (O-demethylenation of MDPM)” value is given as “exclusively by CYP2D6”. In addition, in series [4] (omeprazole 21 µM, pHLM 0.4 mg/mL, 15 min, control without inhibitor = 100%), the CYP2C19 metabolite formation worked out at 86%. The “inhibition of CYP2C19” value in series [4] (omeprazole, pHLM, t-test versus control) is reported as “no significant inhibition”. For the same molecule, the CYP2B6 metabolite formation in series [5] (bupropion 30 µM, pHLM 0.4 mg/mL, 15 min, control without inhibitor = 100%) came to 113%. In addition, in series [5] (bupropion, pHLM, t-test versus control), the “inhibition of CYP2B6” value is recorded as “no significant inhibition”.

These data come from PMC11968506, “Toxicokinetics and analytical toxicology of the phenmetrazine-derived new psychoactive substance 3,4-methylenedioxyphenmetrazine studied by means of in vitro systems” (Archives of Toxicology, 2025).
